According to PubChem BioAssay AID463199 (Broad Institute, 2010):
The source made the active and inactive calls.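 Rule for the calls: active = AC50, the dose giving half-maximal effect, exceeds a fixed cutoff for a compound that rescues yeast growth under heat; inactive = the rest, inconclusive results apart.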

Tested on: S. cerevisiae Burl-1 ts mutant growth, BacTiter-Glo, 38.5C 24 h
Test: restored growth of temperature-sensitive Burl-1 yeast – whole organism, S. cerevisiae, Burl-1 ts mutant, luminescence, counter-screen for SUMOylation pathway inhibitor project, dose response (AID 463199)

| SMILES | AC50 |
| --- | --- |
| C=CCN1C(=O)/C(=C\c2ccc(C)cc2)N=C1SCC(=O)NCCC | > 42 µM (inactive) |
| O=C(NCC1CCN(Cc2ccccc2Cl)CC1)Nc1ccccc1F | > 42 µM (inactive) |
| C=C(Cl)COC(=O)C1C2C=CC(C2)C1C(=O)O (stereo unspecified) | > 42 µM (inactive) |
| Cc1cc(C)c(NC(=O)CNC(=O)c2cc([N+](=O)[O-])ccc2N2CCOCC2)c(C)c1 | > 42 µM (inactive) |
| CC(=O)Nc1cc2nn(-c3ccccc3)nc2cc1Cl | > 42 µM (inactive) |
| COc1ccc(/C=N/NC(=O)c2c(C)nc3ccccn23)cc1[N+](=O)[O-] | > 42 µM (inactive) |
| Cc1ccc(NC(=O)Cn2nnc(C(=O)NCc3ccc4c(c3)OCO4)c2N)cc1 | > 42 µM (inactive) |
| Cc1ccc(-n2nc3c(=O)n(CCCC(=O)NCc4cccc(F)c4)nc(C)c3c2C)cc1 | > 42 µM (inactive) |
| COc1ccc(NC(=O)CN(C)C(=O)/C=C/c2cn(-c3ccccc3)nc2-c2ccc(C)cc2)cc1 | > 42 µM (inactive) |
| CCN(C(=O)COC(=O)c1cc([N+](=O)[O-])ccc1N1CCOCC1)C1CCCCC1 | > 42 µM (inactive) |
| O=C(CSc1ncccc1C(=O)O)NC1CCCCC1 | > 42 µM (inactive) |
| COC(=O)C1C(c2ccc(OC)c(OC)c2)NC(c2ccc(OC)c(OC)c2)C(C(=O)OC)S1(=O)=O (stereo unspecified) | > 42 µM (inactive) |
| O=S(=O)(c1ccc(S(=O)(=O)N2CCCC2)cc1)N1CCCCC1 | > 42 µM (inactive) |
| C=CCn1cc(C(C)=O)c(=O)[nH]c1=O | > 42 µM (inactive) |
| Cc1cc(NC(=O)/C=C/c2ccco2)ccc1NC(=O)c1ccccc1 | > 42 µM (inactive) |
| N#Cc1cc2c(nc1SC1CCCCC1O)CCCC2 (stereo unspecified) | > 42 µM (inactive) |
| CS(=O)(=O)N(CC(=O)N1CCN(c2ccccc2F)CC1)C1CCCCC1 | > 42 µM (inactive) |
| COc1ccc(NC(=O)c2ccccc2NC(=O)NC2CCCCC2)cc1 | > 42 µM (inactive) |
| O=C1OC(Cc2ccccn2)C(O)=C1C1=NCCCN1 (stereo unspecified) | > 42 µM (inactive) |
| CC1CCCN(C(=O)Cc2ccc(F)cc2)C1 (stereo unspecified) | > 42 µM (inactive) |
| Cc1ccc(C(=O)O)cc1[N+](=O)[O-] | > 42 µM (inactive) |
| O=C1CCCN1CCC(=O)N1CCCC(N2CCN(c3ccccc3F)CC2)C1 (stereo unspecified) | > 42 µM (inactive) |
| CC(=O)c1ccccc1C(=O)N1CCCC(N2CCN(Cc3ccc4c(c3)OCO4)CC2)C1 (stereo unspecified) | > 42 µM (inactive) |
| O=[N+]([O-])c1cc([N+](=O)[O-])c2cc3ccccc3nc2c1 | > 42 µM (inactive) |
| C/C(=N/OCO/N=C(\C)c1ccccc1)c1ccccc1 | > 42 µM (inactive) |
| O=C1NC(=O)C(=Cc2ccc(N3CCOCC3)cc2)C(=O)N1 | > 42 µM (inactive) |

| SMILES | AC50 |
| --- | --- |
| CC1(C)Cc2c(c(N3CCCC3)nc3sc4c(N5CCN(CCO)CC5)ncnc4c23)CO1 | > 42 µM (inactive) |
| COc1cccc(C2CC(c3cccc(NS(C)(=O)=O)c3)=NN2C(=O)c2ccccc2)c1OC (stereo unspecified) | > 42 µM (inactive) |
| O=C(NC1CCCCC1)c1ccc2c(=O)n(CC3CCCO3)c(=O)[nH]c2c1 (stereo unspecified) | > 42 µM (inactive) |
| Cc1cc(C(=O)COc2cccc3cccnc23)c(C)n1C | > 42 µM (inactive) |
| CCn1c(SCC(=O)Nc2ccc(OCc3ccccc3)cc2)nnc1-c1ccco1 | > 42 µM (inactive) |
| COc1ccc(CN2C(=O)C(=O)N(CC(N)=O)C2=O)cc1 | > 42 µM (inactive) |
| O=C(c1ccco1)N1CCN(C2CC(=O)N(c3ccc(F)c(Cl)c3)C2=O)CC1 (stereo unspecified) | > 42 µM (inactive) |
| CCC(CC)NC(=O)c1oc2ccccc2c1COc1ccccc1 | > 42 µM (inactive) |
| O=C(c1ccccc1F)N1CCCc2ccccc21 | > 42 µM (inactive) |
| CCOC(=O)c1sc(NC(=O)CSc2n[nH]c(-c3ccccc3)n2)c(C#N)c1C | > 42 µM (inactive) |
| CCCCC(=O)Nc1nnc(/C=C/c2ccc(OC)cc2)s1 | > 42 µM (inactive) |
| COc1cc(NC(=O)C2=CC(c3ccco3)=NS(=O)(=O)N2C)cc(OC)c1OC | > 42 µM (inactive) |
| O=C(O)CCc1ccc(-c2ccccc2)n1NC(=O)c1cccs1 | > 42 µM (inactive) |
| COc1ccc(NC(=O)Nc2ccc(OC)cc2)cc1 | > 42 µM (inactive) |
| Cc1ccc(N(C(C)C(=O)O)S(=O)(=O)c2c(C)n[nH]c2C)cc1 (stereo unspecified) | > 42 µM (inactive) |
| CCCCc1ccc(NC(=S)NCc2cccs2)cc1 | > 42 µM (inactive) |
| CSc1ccc(CCNC(=O)C2CCCN(S(=O)(=O)N3CCOCC3)C2)cc1 (stereo unspecified) | > 42 µM (inactive) |
| O=C(NCCNc1ccc(Cl)cc1[N+](=O)[O-])c1ccccc1F | > 42 µM (inactive) |
| COC(=O)C1CN(C(=O)C(C)Oc2ccc(F)cc2)c2ccccc2O1 (stereo unspecified) | > 42 µM (inactive) |
| CC/C(=N\Nc1ccc([N+](=O)[O-])cc1)c1ccccc1 | > 42 µM (inactive) |
| O=C(COc1ncnc2c(Cl)cc(Cl)cc12)NCCC1=CCCCC1 | > 42 µM (inactive) |
| CCCn1nc(C(=O)NNC(=O)c2cc(S(=O)(=O)NC)ccc2Br)c2ccccc2c1=O | > 42 µM (inactive) |
| CC(NC(=O)C12CC3CC(CC(O)(C3)C1)C2)c1ccccc1 (stereo unspecified) | > 42 µM (inactive) |
| O=C(O)CC(NC(=O)OCc1ccccc1)c1ccc(Br)cc1 (stereo unspecified) | > 42 µM (inactive) |
| OC(COc1ccccc1)Cn1c2ccccc2c2ccccc21 (stereo unspecified) | > 42 µM (inactive) |
| N#Cc1cc([N+](=O)[O-])cnc1NCC(O)CO (stereo unspecified) | > 42 µM (inactive) |

| SMILES | AC50 |
| --- | --- |
| CCc1ccc(-n2c(Cc3ccccc3)n[nH]c2=S)cc1 | > 42 µM (inactive) |
| CCN(CC)/C(=N\S(=O)(=O)c1ccc(F)cc1)c1ccccc1 | > 21 µM (inactive) |
| CCCOc1ccccc1C1NC(=O)NC(C)=C1C(=O)OCCOCC (stereo unspecified) | > 42 µM (inactive) |
| Cc1cc(S(=O)(=O)N2CCCCC2CCNC(=O)C(=O)NCC2CCCO2)ccc1F (stereo unspecified) | > 42 µM (inactive) |
| Fc1cccc(Nc2ncnc3sccc23)c1 | > 42 µM (inactive) |
| O=C(Nc1ccccc1F)C1CCN(C(=O)Cc2ccccc2)CC1 | > 42 µM (inactive) |
| O=S(=O)(Cc1ccccc1)N1CCN(c2ncccn2)CC1 | > 42 µM (inactive) |
| O=C(CCS(=O)(=O)c1ccc(Br)s1)NCc1ccccc1 | > 42 µM (inactive) |
| COC(=O)c1ccc(SCC(=O)N2CCC(C)CC2)c([N+](=O)[O-])c1 | > 42 µM (inactive) |
| O=C(CCc1ccccc1)NNC(=O)c1ccc(Br)cc1 | > 42 µM (inactive) |
| Cc1ccc(C(=O)Nc2ccc3c(c2)OCCO3)c(Cl)c1 | > 42 µM (inactive) |
| COc1ccccc1NC(=O)c1nn(-c2cccc(C(F)(F)F)c2)ccc1=O | 12 µM |
| Clc1ccc(CONc2ncnc3nonc23)c(Cl)c1 | 9.28 µM |
| COC(=O)c1ccccc1NC(=O)c1cnn2c(C)cc(C)nc12 | > 42 µM (inactive) |
| CCOc1ccccc1N(CC(=O)Nc1ccccc1C(=O)N1CCCC1)S(C)(=O)=O | > 42 µM (inactive) |
| CN(C#N)c1nc(Cl)nc(Nc2cccc(Cl)c2)n1 | > 42 µM (inactive) |
| Cc1ccccc1NC1=NCCCS1 | > 42 µM (inactive) |
| COc1cc(CN2CCNC(=O)C2CC(=O)NCCc2ncccc2C)cc(OC)c1 (stereo unspecified) | > 42 µM (inactive) |
| Cc1cc(C)n(C(=O)CNC(=O)c2ccc3c(c2)OCCO3)n1 | > 42 µM (inactive) |
| O=C(CN1CCN(c2nc(-c3ccccc3)cs2)CC1)NNC(=O)c1ccc(Br)cc1 | > 42 µM (inactive) |
| O=C(c1ccc([N+](=O)[O-])o1)N1CCN(c2nc3c(Cl)cccc3s2)CC1 | > 42 µM (inactive) |
| CC(=O)N1N=C(c2ccc(C(C)(C)C)cc2)OC1(C)C | > 42 µM (inactive) |
| C=C(C)C(=O)Nc1cccnc1Oc1ccc(F)cc1F | > 42 µM (inactive) |
| O=C(CCl)N(Cc1cc(=O)[nH]c2ccccc12)c1ccccc1 | > 42 µM (inactive) |
| C/C(O)=C(\N=Nc1cc(C)ccc1O)C(N)=O | > 42 µM (inactive) |
| CCOC(=O)NC1(Nc2ccc(C)cc2)Oc2ccccc2O1 | > 42 µM (inactive) |

| SMILES | AC50 |
| --- | --- |
| COc1cc(COc2ccc3c(C)c(CC(=O)O)c(=O)oc3c2C)cc(OC)c1OC | > 42 µM (inactive) |
| CC(C(=O)NCCN1CCOCC1)(c1ccccc1)c1ccccc1 | > 42 µM (inactive) |
| COc1ccc(Cn2nnnc2CN2CCN(c3ccc(OC)cc3)CC2)cc1 | > 42 µM (inactive) |
| CCOc1ccc(C(=O)NCC2OCCc3ccccc32)cc1 (stereo unspecified) | > 42 µM (inactive) |
| NC(=O)C1CCN(C2CC(=O)N(c3ccc(F)c(Cl)c3)C2=O)CC1 (stereo unspecified) | > 42 µM (inactive) |
| COc1ccc(N2CC(C(=O)N3CCc4ccccc43)CC2=O)cc1 (stereo unspecified) | > 42 µM (inactive) |
| CCOC(=O)Nc1sc(=S)n(C)c1C | > 42 µM (inactive) |
| CCCCN(C)C(=O)c1cc2c(Cl)nc3ccccc3c2s1 | > 42 µM (inactive) |
| CS(=O)(=O)N1CCCC(C(=O)Nc2ccc(F)cc2F)C1 (stereo unspecified) | > 42 µM (inactive) |
| Cc1ccc(S(=O)(=O)NN2C(=O)c3ccccc3NC2c2ccccc2F)cc1 (stereo unspecified) | > 42 µM (inactive) |
| CCCc1cc(=O)oc2c3c(c4c(c12)OC(C)(C)C=C4)OC(C)C(C)C3O (stereo unspecified) | > 42 µM (inactive) |
| Cc1nc2ccc(S(=O)(=O)NC(CC(C)C)C(=O)O)cc2s1 (stereo unspecified) | > 42 µM (inactive) |
| Cc1cccc(-[n+]2c(-c3cccc(Br)c3)[nH]c3nc4ccccc4nc32)c1 | > 42 µM (inactive) |
| CCOP(=O)(Cc1cc(C(=O)CC)c(C)o1)OCC | > 42 µM (inactive) |
| CCCCCOC(=O)C1=C(C)N(C)C(=O)NC1c1cc(Br)c(O)c(OC)c1 (stereo unspecified) | > 42 µM (inactive) |
| Cc1ccc2nc(NC(=O)CNS(=O)(=O)c3ccc(Br)s3)sc2c1 | > 42 µM (inactive) |
| O=C(Nc1ccc(F)cc1)c1ccc(CSc2ccccc2)o1 | > 42 µM (inactive) |
| CCOC(=O)CSc1cc(C)nc2ccc(OC)cc12 | > 42 µM (inactive) |
| COC(=O)Nc1ccc(S(=O)(=O)N2CCCC(C(=O)NC3CCS(=O)(=O)C3)C2)cc1 (stereo unspecified) | > 42 µM (inactive) |
| CC1C(=O)CC(c2ccccc2)NC1c1ccccc1 (stereo unspecified) | > 42 µM (inactive) |
| O=c1[nH]nc(Cc2ccc(-c3ccccc3Cl)o2)c2ccccc12 | > 42 µM (inactive) |
| N=c1c[n+](C2CCCCC2)[n-]o1 | > 42 µM (inactive) |
| COc1cc(C(=O)NCCOc2cc(C)cc(C)c2)cc(OC)c1OC | > 42 µM (inactive) |
